Tests used:
[1] = target: T1, IRAK3 (Homo sapiens, UniProt Q9Y616); experiment: IRAK endogenous HTRF degradation assay (Total-IRAK3 HTRF kit); assay type: cell-based; design: IRAK Endogenous HTRF Degradation Assay; endogenous in cells; details: endogenous IRAK3, overnight incubation; % Dmax = 100 − Ymin
T1 sequence (Q9Y616 1-596): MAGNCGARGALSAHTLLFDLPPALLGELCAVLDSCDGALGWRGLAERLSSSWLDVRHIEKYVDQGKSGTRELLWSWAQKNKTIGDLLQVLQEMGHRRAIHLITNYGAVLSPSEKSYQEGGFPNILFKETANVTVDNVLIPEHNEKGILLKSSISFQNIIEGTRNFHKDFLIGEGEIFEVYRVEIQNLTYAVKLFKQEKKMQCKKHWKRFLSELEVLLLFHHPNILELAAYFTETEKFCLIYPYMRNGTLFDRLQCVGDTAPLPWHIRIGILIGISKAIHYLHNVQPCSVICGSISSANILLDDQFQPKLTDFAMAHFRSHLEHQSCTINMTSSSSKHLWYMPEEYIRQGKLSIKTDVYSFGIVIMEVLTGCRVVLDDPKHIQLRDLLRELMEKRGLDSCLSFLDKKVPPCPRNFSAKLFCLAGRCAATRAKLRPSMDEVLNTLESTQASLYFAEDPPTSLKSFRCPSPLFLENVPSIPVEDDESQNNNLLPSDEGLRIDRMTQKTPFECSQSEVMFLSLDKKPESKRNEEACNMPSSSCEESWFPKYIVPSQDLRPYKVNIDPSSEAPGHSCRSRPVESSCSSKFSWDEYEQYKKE
Method: Example B2. IRAK Endogenous HTRF Degradation Assay
Cells (~50k) were plated in Cisbio 96-well low volume white plates (Cisbio: cat #66PL96005). Compounds were dissolved in DMSO and a 3-fold serial dilution was performed using a TECAN D300E. Cells were incubated with the compound overnight. Total-IRAK3 HTRF kit from Cisbio was used for degradation analysis (Cisbio: 63ADK101PEH). Cryptate and D2 antibodies were diluted in Detection buffer as per manufacturers recommendation. Then 2 μL of each solution was added to 16 μL lysate. Buffer control (lysis buffer detection buffer), Cryptate control (lysis buffer+cryptate antibody+detection buffer), and Negative control (lysis buffer+cryptate antibody+D2 antibody) were made as per manufacturers recommendation. Post incubation with antibodies the HTRF signal was measured using a Perkin Elmer Envision reader and the HTRF signal was calculated using formula: (Emission at 665 nm/Emission at 615 nm)*10,000. All HTRF values were normalized to the average value of DMSO. The average value of the DMSO control wells were set to equal 100% of the relative IRAK3 protein levels. Normalized luminescence values were plotted on a graph as a function of compound concentration. Compound concentration was plotted on the x-axis and the corresponding normalized IRAK3 protein levels on the y-axis. The EC50 value (the half-maximum effective concentration) of a compound for the degradation of the IRAK3 was calculated using a four-parameter logistic model (sigmoidal dose-response model) (FIT=(A+{(B−A)/1+[(C/x)D]})) where C is the inflection point (EC50), D is the […], and A and B are the low and high limits of the fit, respectively). The Ymin was calculated by determining the lowest percentage of target protein remaining following compound treatment. Dmax was calculated from Ymin (% Dmax=100−Ymin).
Using these assays, IC50, Dmax, EC50, and DC50 values of the following compounds were determined. Dmax is defined as the maximum percent degradation achieved and DC50 is the concentration at which 50% degradation is achieved.

[2] = target: T2, IRAK3-ePL (Homo sapiens, UniProt Q9Y616); experiment: IRAK3-ePL overexpressing degradation assay; assay type: cell-based; details: IRAK3-ePL Lenti-X 293T CRBN/GSPT1 G575N cells, overnight incubation, top dose 10 μM
T2 construct: expressed in transfected cells; host or cells: 293T CRBN OE/GSPT1 G575N KI cells, lentiviral transduction, puromycin selection
Method: Example B1. IRAK3-ePL Overexpressing Degradation Assay
Stable cell lines were generated by the following protocol. 3×10^5 Lenti-X 293T cells (Clonetech) were plated in 0.8 mL of media in a 12-well plate and incubated overnight at 37° C./5% CO2. Packaging plasmid (0.4 μg, pMD), envelope plasmid (0.4 μg, pSP), and lentiviral transfer IRAK3-ePL plasmid (0.8 μg, IRAK3 sequence NM_007199.3) were mixed in 0.1 mL of Opti-MEM and incubated for 5 min. Simultaneously, 2.4 μL of Lipofectamine 2000 (Invitrogen) was added to 0.1 mL of Opti-MEM (Gibco) and incubated for 5 min. The plasmid DNA and lipofectamine were combined and the mixture was allowed to incubate for 20 min. DNA:Lipofectamine Opti-MEM mixtures were then added to previously plated cells dropwise and the cells were incubated for ~16 h at 37° C./5% CO2. Following incubation, the media was removed and 1.2 mL of fresh media was added per well. Lenti-X 293T cells were incubated for ~30 h at 37° C./5% CO2. […] Following incubation, media was removed from the Lenti-X 293T wells and passed through a […]. Part of the viral supernatant was used to transduce cells and the rest was stored at −80° C. Viruses were then added individually (0.5 mL virus) to each well of the 293T^CRBN OE/GSPT1 G575N KI cells, followed by addition of polybrene (10 mg/mL Millipore) to each well at a final concentration of 5.0 μg/mL. Cells were incubated for ~24 h at 37° C./5% CO2. After aspirating media off plates, cells were washed with DPBS, trypsinized and plated in a 10 cm dish in 15 mL of media and 1 μg/mL puromycin. Following incubation of cells for ~72 h at 37° C./5% CO2, media was aspirated off plates, and cells were washed with DPBS and trypsinized. The cells were plated in a 15 cm dish in 40 mL of media with 1.0 μg/mL Puromycin (Gibco) and incubated for ~72 h at 37° C./5% CO2. Following incubation, media was removed and cells were washed with DPBS and trypsinized. The majority of cells were resuspended in Invitrogen freezing media and stored away (~6-8×10^6 cells/vial).
IRAK3-ePL cellular dose response curve degradation assays were performed by the following protocol. Compounds to be tested were dispensed into a white 384-well tissue-culture treated plate using an acoustic liquid handler. Dilutions were prepared based on a 25 μL assay volume in duplicate 10 point 3-fold serial dilutions starting with a 10 μM dose. Negative control wells were included, which only contain 0.2% DMSO to calculate 100% signal. Positive control wells containing 30 μM Ataluren (luciferase inhibitor) were included to calculate the background signal level. All wells were backfilled to a final DMSO concentration of 0.2% to ensure DMSO uniformity across wells. IRAK3-ePL expressing cells (IRAK3-ePL Lenti-X 293T^CRBN/GSPT1 G575N) were washed, trypsinized, counted, and resuspended in fresh DMEM (Gibco) to give a cell concentration of 200,000 cells/mL. 25 μL of cells (5,000 cells/well) were dispensed into the wells of the 384-well plate prespotted with compounds in the previous step and incubated overnight at 37° C./5% CO2. Following incubation, the 384-well plate was taken out of the incubator and left at room temperature for 30 min. InCELL hunter reagent was prepared according to manufacturer's instructions (EA reagent, lysis buffer, and substrate reagent in a 1:1:4 ratio, Cat #96-0002, DiscoverX), which was added to the 384-well plate 25 μL per well. Following the incubation of the plate for 1 h at room temperature, the luminescence signal was read using a ViewLux plate reader. Data was processed and analyzed in ActivityBase software. In short, the average luminescence values of the positive control wells were subtracted from the rest of the wells for background correction, and all luminescence values were normalized to the DMSO control wells. The average value of the DMSO control wells was set to equal 100% of the relative IRAK3-ePL protein levels. […]

Dmax [1]: 34%
Dmax ([2]; HEK-293T, maximum percentage loss of target protein): 23%
DC50 ([2]; read-out: IRAK3 ePL degradation EC50): > 10 µM
Compound: Cc1ncsc1-c1ccc(CNC(=O)[C@@H]2C[C@@H](O)CN2C(=O)[C@@H](NC(=O)COCCOCCOCCOCCOCCN2CCC(n3cc(-c4cnc(N)c(O[C@H](C)c5c(Cl)ccc(F)c5Cl)c4)cn3)CC2)C(C)(C)C)cc1 [Compound 5, (2S,4R)-1-((S)-20-(4-(4-(6-amino-5-((R)-1-(2,6-dichloro-3-fluorophenyl)ethoxy)pyridin-3-yl)-1H-pyrazol-1-yl)piperidin-1-yl)-2-(tert-butyl)-4-oxo-6,9,12,15,18-pentaoxa-3-azaicosanoyl)-4-hydroxy-N-(4-(4-methylthiazol-5-yl)benzyl)pyrrolidine-2-carboxamide]

— patent publication US20260234124A1, “Substituted Pyrazolyl-Pyridinyl Compounds as Ligand Directed Degraders of IRAK3” (Celgene Corporation, priority 2022, published 2026)
